From patent US20080027025A1 (The Regents of the University of California, priority 2004, published 2008)

Columns and labels:
[1] = tested on: Reporter T cells containing an integrated loxP-STOP-loxP GFP expression gene; type: cell-based
N2a cells = type: cell-based, Murine
cells = settings: cited from earlier work
N2aPK1 cells = type: cell-based, murine

Compound	uptake of rPrP^C(23-90)-Cre into cells and subsequent DNA recombination (GFP-positive cells) [1]	cell surface association of rPrP^C-546 (N2a cells)	cellular uptake of rPrP^C-546 (N2a cells)	also measured
chondroitin sulfate B	inhibited protein uptake into cells and subsequent DNA recombination in a dose-dependent manner	–	–	–
C[C@@H]1[C@H](O)[C@@H](C)/C=C/C=C/CC/C=C/C=C/C=C/C=C/C(O[C@H]2O[C@H](C)[C@@H](O)[C@H](N)[C@@H]2O)CC2O[C@](O)(CC(O)C(O)CCC(O)CC(O)CC(O)CC(=O)O[C@H]1C)CC(O)C2C(=O)O (stereo partly shown) [nystatin]	–	–	–	internalization of rPrP^C-Alexa546 (N2a cells): prevented
heparin	inhibited protein uptake into cells and subsequent DNA recombination in a dose-dependent manner	–	–	PrP^C infection of cells (cells): can prevent; surface binding of rPrP^C-Alexa546 (N2a cells): prevented
C=C1[C@@H](C)[C@H]2[C@H](Cc3ccccc3)NC(=O)[C@]23[C@H](OC(C)=O)/C=C/[C@@](C)(O)C(=O)[C@@H](C)C/C=C/[C@H]3[C@@H]1O [cytochalasin D]	–	did not block	prevented the cellular uptake	–
CCN(c1nc(N)c(C(=O)NC(=N)N)nc1Cl)C(C)C [EIPA]	–	did not block	prevented the cellular uptake	PrP^C to PrP^Sc conversion (proteinase K resistant PrP) (N2aPK1 cells): concentration-dependent inhibition
